Measurements as given in publication PMC9586930, “Molecular insights into the distinct signaling duration for the peptide-induced PTH1R activation” (Nature Communications, 2022).
Numbering of substitutions follows the chain as printed.

How the values were obtained:
Format in all cases: cell-based
Conditions in all cases: for ΔpEC50±SEM: relative to WT, n = 3 in triplicate; for ΔpEC50±SEM / Span±SEM: mean ± SEM; for Span±SEM: window between maximal response (Emax) and vehicle, n = 3
PTH1R K360A mutant = target: T1, PTH1R K360A mutant (Homo sapiens, UniProt Q03431, K360A); assay: cAMP accumulation assay (GloSensor), PTH1R K360A
T1 construct: a flag-tag was fused to the N terminal of full-length PTH1R (WT or mutant); expressed in transfected cells; host or cells: HEK293T
T1 sequence (Q03431 27-593 K360A): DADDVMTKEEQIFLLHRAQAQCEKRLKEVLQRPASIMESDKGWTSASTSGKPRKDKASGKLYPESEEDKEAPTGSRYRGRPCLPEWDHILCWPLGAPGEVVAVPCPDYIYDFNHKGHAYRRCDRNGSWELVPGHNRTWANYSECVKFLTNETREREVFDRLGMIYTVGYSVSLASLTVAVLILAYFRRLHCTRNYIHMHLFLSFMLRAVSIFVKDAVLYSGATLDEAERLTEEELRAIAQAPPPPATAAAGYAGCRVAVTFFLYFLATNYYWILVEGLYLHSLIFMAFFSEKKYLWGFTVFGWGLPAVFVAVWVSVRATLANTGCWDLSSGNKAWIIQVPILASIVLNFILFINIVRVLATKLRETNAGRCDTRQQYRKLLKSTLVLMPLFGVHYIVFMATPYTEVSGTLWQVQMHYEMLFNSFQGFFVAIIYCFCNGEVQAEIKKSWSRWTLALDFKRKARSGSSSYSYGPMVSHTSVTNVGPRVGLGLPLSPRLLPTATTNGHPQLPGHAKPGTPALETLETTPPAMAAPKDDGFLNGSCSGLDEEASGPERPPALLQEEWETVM
Experimental: (§1) Human embryonic kidney 293 T (HEK293T, ATCC: CRL-1573) cells were transfected with a plasmid mixture consisting of pcDNA3.1-flag-PTH1R (WT or mutants) and the cAMP biosensor GloSensor-22F (Promega) at a ratio of 2:1 (see Supplementary Table 7 for a list of primers used in this study). After 24 h, transfected cells were plated onto a 384-well plate, which was treated with cell adherent reagent (Applygen) in advance. After another 12 h, cells were treated with Hank’s balanced salt solution for starvation and then incubated in CO2-independent media containing 4% GloSensor cAMP Reagent (Promega) at a volume of 5 μl per well and incubated for 20 min at RT before measurements for baseline luminescence (Spark Multimode microplate reader, TECAN). Next, test ligands were added at different concentrations from 10^−6 to 10^−13 M before second measurement. Finally, data were normalized to 100% of the maximal PTH (1-34) response for WT PTH1R using a sigmoidal dose-response in GraphPad Prism.
(§2) Statistical analyses were performed on at least three individual datasets and analysed using GraphPad Prism software. Bars represent differences in the calculated agonist potency (pEC50) and maximum agonist response (Emax) for each mutant relative to the WT receptor. Data are mean± s.e.m. from at least three independent experiments, performed in triplicates. ns, not significant, ^nsP > 0.01; ^*P < 0.01; ^**P < 0.001; ^***P < 0.0001 (one-way analysis of variance (ANOVA) followed by Dunnett’s test, compared with the response of the WT). For dose-response experiments, data were normalized and analyzed using nonlinear curve fitting for the log (agonist) versus response (three parameters) curves.

PTH1R I363A mutant = target: T2, PTH1R I363A mutant (Homo sapiens, UniProt Q03431, I363A); assay: cAMP accumulation assay (GloSensor), PTH1R I363A
T2 construct: a flag-tag was fused to the N terminal of full-length PTH1R (WT or mutant); expressed in transfected cells; host or cells: HEK293T
T2 sequence (Q03431 27-593 I363A): T1 sequence (Q03431 27-593 K360A) with A334K, I337A
Experimental: as §1, §2

PTH1R L436A mutant = target: T3, PTH1R L436A mutant (Homo sapiens, UniProt Q03431, L436A); assay: cAMP accumulation assay (GloSensor), PTH1R L436A
T3 construct: a flag-tag was fused to the N terminal of full-length PTH1R (WT or mutant); expressed in transfected cells; host or cells: HEK293T
T3 sequence (Q03431 27-593 L436A): T1 sequence (Q03431 27-593 K360A) with A334K, L410A
Experimental: as §1, §2

| span (from the WT) (PTH1R K360A mutant; PTH1R K3605.36A, replicate 1) | ΔpEC50 (from the WT) (PTH1R K360A mutant; PTH1R K3605.36A, replicate 1) | span (from the WT) (PTH1R K360A mutant; PTH1R K3605.36A, replicate 2) | ΔpEC50 (from the WT) (PTH1R K360A mutant; PTH1R K3605.36A, replicate 2) | span (from the WT) (PTH1R K360A mutant; PTH1R K3605.36A, replicate 3) | ΔpEC50 (from the WT) (PTH1R K360A mutant; PTH1R K3605.36A, replicate 3) | ΔpEC50±SEM (PTH1R K360A mutant) | ΔpEC50 (from the WT) (PTH1R K360A mutant; replicate 1) | ΔpEC50 (from the WT) (PTH1R K360A mutant; replicate 2) | ΔpEC50 (from the WT) (PTH1R K360A mutant; replicate 3) | Span±SEM (PTH1R K360A mutant) | span (from the WT) (PTH1R I363A mutant; PTH1R I3635.39A, replicate 1) | ΔpEC50 (from the WT) (PTH1R I363A mutant; PTH1R I3635.39A, replicate 1) | span (from the WT) (PTH1R I363A mutant; PTH1R I3635.39A, replicate 2) | ΔpEC50 (from the WT) (PTH1R I363A mutant; PTH1R I3635.39A, replicate 2) | span (from the WT) (PTH1R I363A mutant; PTH1R I3635.39A, replicate 3) | ΔpEC50±SEM (PTH1R I363A mutant) | ΔpEC50 (from the WT) (PTH1R I363A mutant; replicate 1) | ΔpEC50 (from the WT) (PTH1R I363A mutant; replicate 2) | ΔpEC50 (from the WT) (PTH1R I363A mutant; replicate 3) | Substance | also measured |
| --- | --- | --- | --- | --- | --- | --- | --- | --- | --- | --- | --- | --- | --- | --- | --- | --- | --- | --- | --- | --- | --- |
| 126.5 | 0.012 | 121.9 | 0.001 | 153.1 | -0.25 | -0.08±0.09 | 0.012 | 0.001 | -0.25 | 133.83±9.72 | 94.78 | -0.24 | 139.7 | -0.23 | 119.7 | -0.05±0.19 | -0.24 | -0.23 | 0.32 | H-AVAEIQLMHQRAKWIQDARRRAFLHKLIAEIHTAEI-OH [LA-PTH, long-acting PTH analog, modified PTH/PTHrP hybrid] | Span±SEM (PTH1R I363A mutant): 118.06±12.99; span (from the WT) (PTH1R L436A mutant; PTH1R L4367.34A, replicate 1): 237.8; ΔpEC50 (from the WT) (PTH1R L436A mutant; PTH1R L4367.34A, replicate 1): 0.088; span (from the WT) (PTH1R L436A mutant; PTH1R L4367.34A, replicate 2): 171.3; ΔpEC50 (from the WT) (PTH1R L436A mutant; PTH1R L4367.34A, replicate 2): -0.137; span (from the WT) (PTH1R L436A mutant; PTH1R L4367.34A, replicate 3): 194.5; ΔpEC50 (from the WT) (PTH1R L436A mutant; PTH1R L4367.34A, replicate 3): 0.085; ΔpEC50±SEM (PTH1R L436A mutant): 0.01±0.07; ΔpEC50 (from the WT) (PTH1R L436A mutant; replicate 1): 0.088; ΔpEC50 (from the WT) (PTH1R L436A mutant; replicate 2): -0.137; ΔpEC50 (from the WT) (PTH1R L436A mutant; replicate 3): 0.085; Span±SEM (PTH1R L436A mutant): 201.20±19.49 |
| 136.9 | 0.02 | 137.1 | -0.139 | 183.3 | -0.31 | -0.14±0.10 | 0.02 | -0.139 | -0.31 | 135.06±20.89 | 93.29 | -0.207 | 156.2 | -0.352 | 155.7 | -0.28±0.04 | -0.207 | -0.352 | -0.276 | H-SVSEIQLMHNLGKHLNSMERVEWLRKKLQDVHNF-OH [PTH, Teriparatide, human PTH 1-34, long-acting peptide agonist of PTH1R] | ΔpEC50 (from the WT) (PTH1R I363A mutant; PTH1R I3635.39A, replicate 3): -0.276; Span±SEM (PTH1R I363A mutant): 180.23±7.67; span (from the WT) (PTH1R L436A mutant; PTH1R L4367.34A, replicate 1): 270.9; ΔpEC50 (from the WT) (PTH1R L436A mutant; PTH1R L4367.34A, replicate 1): 0.137; span (from the WT) (PTH1R L436A mutant; PTH1R L4367.34A, replicate 2): 204.3; ΔpEC50 (from the WT) (PTH1R L436A mutant; PTH1R L4367.34A, replicate 2): 0.015; span (from the WT) (PTH1R L436A mutant; PTH1R L4367.34A, replicate 3): 186.9; ΔpEC50 (from the WT) (PTH1R L436A mutant; PTH1R L4367.34A, replicate 3): 0.016; ΔpEC50±SEM (PTH1R L436A mutant): 0.06±0.04; ΔpEC50 (from the WT) (PTH1R L436A mutant; replicate 1): 0.137; ΔpEC50 (from the WT) (PTH1R L436A mutant; replicate 2): 0.015; ΔpEC50 (from the WT) (PTH1R L436A mutant; replicate 3): 0.016; Span±SEM (PTH1R L436A mutant): 220.70±25.60 |

| Substance | span (from the WT) (PTH1R K360A mutant; PTH1R K3605.36A, replicate 1) | ΔpEC50 (from the WT) (PTH1R K360A mutant; PTH1R K3605.36A, replicate 1) | span (from the WT) (PTH1R K360A mutant; PTH1R K3605.36A, replicate 2) | ΔpEC50 (from the WT) (PTH1R K360A mutant; PTH1R K3605.36A, replicate 2) | span (from the WT) (PTH1R K360A mutant; PTH1R K3605.36A, replicate 3) | ΔpEC50 (from the WT) (PTH1R K360A mutant; PTH1R K3605.36A, replicate 3) | ΔpEC50±SEM (PTH1R K360A mutant) | ΔpEC50 (from the WT) (PTH1R K360A mutant; replicate 1) | ΔpEC50 (from the WT) (PTH1R K360A mutant; replicate 2) | ΔpEC50 (from the WT) (PTH1R K360A mutant; replicate 3) | Span±SEM (PTH1R K360A mutant) | span (from the WT) (PTH1R I363A mutant; PTH1R I3635.39A, replicate 1) | ΔpEC50 (from the WT) (PTH1R I363A mutant; PTH1R I3635.39A, replicate 1) | span (from the WT) (PTH1R I363A mutant; PTH1R I3635.39A, replicate 2) | ΔpEC50 (from the WT) (PTH1R I363A mutant; PTH1R I3635.39A, replicate 2) | span (from the WT) (PTH1R I363A mutant; PTH1R I3635.39A, replicate 3) | ΔpEC50±SEM (PTH1R I363A mutant) | ΔpEC50 (from the WT) (PTH1R I363A mutant; replicate 1) | ΔpEC50 (from the WT) (PTH1R I363A mutant; replicate 2) | ΔpEC50 (from the WT) (PTH1R I363A mutant; replicate 3) | also measured |
| --- | --- | --- | --- | --- | --- | --- | --- | --- | --- | --- | --- | --- | --- | --- | --- | --- | --- | --- | --- | --- | --- |
| H-AVSEHQLLHDKGKSIQDLRRRELLEKLL-{Aib}-KLHTA-NH2 [ABL, Abaloparatide, an analog of PTHrP, short-acting PTH1R agonist] | 125.1 | -1.039 | 150.8 | -1.216 | 115 | -1.137 | -1.13±0.05 | -1.039 | -1.216 | -1.137 | 130.30±10.66 | 145.9 | -0.54 | 170 | -0.46 | 139.9 | -0.57±0.08 | -0.54 | -0.46 | -0.722 | ΔpEC50 (from the WT) (PTH1R I363A mutant; PTH1R I3635.39A, replicate 3): -0.722; Span±SEM (PTH1R I363A mutant): 151.93±9.20; span (from the WT) (PTH1R L436A mutant; PTH1R L4367.34A, replicate 1): 166.5; ΔpEC50 (from the WT) (PTH1R L436A mutant; PTH1R L4367.34A, replicate 1): -0.45; span (from the WT) (PTH1R L436A mutant; PTH1R L4367.34A, replicate 2): 265; ΔpEC50 (from the WT) (PTH1R L436A mutant; PTH1R L4367.34A, replicate 2): -0.73; span (from the WT) (PTH1R L436A mutant; PTH1R L4367.34A, replicate 3): 245.1; ΔpEC50 (from the WT) (PTH1R L436A mutant; PTH1R L4367.34A, replicate 3): -0.7; ΔpEC50±SEM (PTH1R L436A mutant): -0.63±0.09; ΔpEC50 (from the WT) (PTH1R L436A mutant; replicate 1): -0.45; ΔpEC50 (from the WT) (PTH1R L436A mutant; replicate 2): -0.73; ΔpEC50 (from the WT) (PTH1R L436A mutant; replicate 3): -0.7; Span±SEM (PTH1R L436A mutant): 225.53±30.07 |
